Values of other authors as cited in patent US7560120B2, “Vehicles for delivery of biologically active substances” (University of Tennessee Research Foundation, priority 2002, dated 2009).
Where a name gives a salt, the structure may show the parent alone. Read-outs that look alike come from different tables or passages of the source.

Tests used:
[1] = system: Rat; details: oral
[2] = not given; remark: listed apart in the source
[3] = system: Rat; details: in vivo, sc

Row | Structure (SMILES) | LD50 [1] | Viscosity (cps) at 25° C. | Water Solubility at 25° C. (g/100 ml) [2] | LD50 [3]
1 | CCCCCCOC(=O)CC(CC(=O)OCCCCCC)(OC(C)=O)C(=O)OCCCCCC [A-6, Acetyltri-n-hexyl Citrate] | 20000 mg/kg | 36 cps |  | 
2 | CCCCOC(=O)CC(CC(=O)OCCCC)(OC(C)=O)C(=O)OCCCC [ATBC, Acetyl Tributyl Citrate] | >25000 mg/kg | 33 cps | <0.1 g/100 ml | 
3 | CCOC(=O)CC(CC(=O)OCC)(OC(C)=O)C(=O)OCC [ATEC, acetyl triethyl citrate] | 7000 mg/kg | 54 cps |  | 
4 | CCCCCCOC(=O)CC(CC(=O)OCCCCCC)(OC(=O)CCC)C(=O)OCCCCCC [B-6, Butyryltri-n-hexyl Citrate] | 2000 mg/kg | 28 cps |  | 
5 | CCCCOC(=O)CC(O)(CC(=O)OCCCC)C(=O)OCCCC [TBC, Tributyl Citrate] | >30000 mg/kg | 32 cps | <0.1 g/100 ml | 
6 | CCOC(=O)CC(O)(CC(=O)OCC)C(=O)OCC [TEC, triethyl citrate] |  | 35 cps |  | 6600 mg/kg
